Where a SMILES comes first, the peptide text is derived from it. Bridges are numbered along the chain shown (N, C = ends). Primed or numbered codes have the meaning given here. Where no end group is shown, it is not given here. [ ]: non-standard residue; d: D form. FITC′ = not defined here
Experiments:
[1] = tested on: wild-type mice obese due to old age; test: Treatment of age-related obesity in regular diet-fed wild-type mice; type: in vivo, mouse
Protocol: Fat resorption and metabolic analysis. […] Tissue lipids were measured as described.

[2] = tested on: diet-induced obese C57BL/6 mice; test: Fat resorption and metabolic analysis in diet-induced obese mice; details: 4 weeks of treatment
Source text: Apoptosis was detected by using standard TUNEL immunohistochemistry.
Fat resorption and metabolic analysis. High-calorie diet for obesity induction (TD97366: 25.4% fat, 21.79% protein, 38.41% carbohydrate) was purchased from Harlan Teklad. […] Stocks of [sequence] (SEQ ID NO:4)-GG-D(KLAKLAK)2 (SEQ ID NO:11), [sequence] (SEQ ID NO:10)-GG-D(KLAKLAK)2 (SEQ ID NO:11), D(KLAKLAK)2, CARAC (SEQ ID NO:9)-GG-D(KLAKLAK)2 (SEQ ID NO:11), and [sequence] (SEQ ID NO:4) chemically synthesized, cyclized, and HPLC-purified to 99% purity (AnaSpec) were prepared by dissolving lyophilized peptides in DMSO to a concentration of 65 mM. […] Mouse weight, body temperature, and food and water consumption were monitored weekly. Tissue lipids were measured as described. […] Oxygen consumption and heat generation of fasting mice were measured for 24 h by indirect calorimetry with OXYMAX (Columbus Instruments, Columbus, Ohio). To quantify spontaneous activity, 8 mice (2 mice per cage) were placed in automated photocell activity cages (AccuScan Instruments, Columbus, Ohio). […] Horizontal locomotor activity was computer-monitored as the number of infrared beam breaks, which were detected for the period of 1 h and recorded every hour for the duration of the test (14 h) by using a Versamax Analyser. […]

[3] = tested on: LNCaP cells; test: Induction of apoptosis, WST-1 cell viability assay, LNCaP; type: cell-based, human; details: 10-100 μM, 24-72 hours
Protocol: (§1) Induction and Quantification of Apoptosis with […] (SEQ ID NO:1)-GG-D(KLAKLAK)2 (SEQ ID NO:11) Synthetic Peptide. Soluble […] (SEQ ID NO:1)-GG-D(KLAKLAK)2 (SEQ ID NO:11), […] […] The unrelated control peptide […] (SEQ ID NO:5)-GG-D(KLAKLAK)2 (SEQ ID NO:11) was synthesized by Genemed Synthesis, Inc. (South San Francisco, Calif.). LNCaP, MDA-PCa-2b cells (each at 3×10^4 per well), and EF43fgf-4 cells (7) at 2×10^4 per well were seeded in triplicates and incubated in 96-well plates (Becton Dickinson, Franklin Lakes, N.J.) for 24-72 hours at 37° C., with serially increasing concentrations (10-100 μM) of […] (SEQ ID NO:1))-GG-D(KLAKLAK)2 (SEQ ID NO:11) peptide, […] (SEQ ID NO:1)-peptide alone, D(KLAKLAK)2 (SEQ ID NO:11) peptide alone, or an equimolar mixture of the unconjugated peptides […] […] LNCaP cells were also exposed in parallel to increasing concentrations (20-100 μM) of […] (SEQ ID NO:1)-GG-D(KLAKLAK)2 (SEQ ID NO:11) and unrelated control peptides […] (SEQ ID NO:4)-GG-D(KLAKLAK)2 (SEQ ID NO:11) or […] (SEQ ID NO:5)-GG-D(KLAKLAK)2 (SEQ ID NO:11), under the same conditions. […] (SEQ ID NO:1)-GG-D(LAKLAK)2 (SEQ ID NO:11) peptide for 3 hours. Response was evaluated by a cell viability assay (WST-1; Roche, Mannheim, Germany).

[4] = tested on: MDA-PCa-2b cells; test: Induction of apoptosis, WST-1 cell viability assay, MDA-PCa-2b; type: cell-based, human; details: 10-100 μM, 24-72 hours
Protocol: as §1

[5] = tested on: white fat vasculature; test: In vivo homing of fitc-peptides in wild-type mice; set-up: species or system mouse
[6] = tested on: DU145 cells; test: Cell apoptosis assay (Annexin-V staining), DU145; type: cell-based, human; details: DU145, 30 μM, 6 hours
Source text: Cell apoptosis assays. Peptides were synthesized to our specifications at greater than 95% purity (Genemed Synthesis Inc., San Francisco, Calif.). Apoptosis was induced with a pro-apoptotic motif D(KLAKLAK)2 that disrupts mitochondrial membranes and is inert to eukaryotic plasma membranes. An equimolar concentration of the targeted [(WIFPWIQL (SEQ ID NO:6)-GG-D(KLAKLAK)2 (SEQ ID NO:11) and WDLAWMFRLPVG (SEQ ID NO:7)-GG-D(KLAKLAK)2) (SEQ ID NO:11)] and untargeted [(WIFPWIQL (SEQ ID NO:6)-+(KLAKLAK)2 (SEQ ID NO:11) and WDLAWMFRLPVG (SEQ ID NO:7)-+(KLAKLAK)2 (SEQ ID NO:11)] peptides was used. Human prostate cancer-derived DU 145 cells were grown in tissue chamber slides (Lab-Tek II Chamber Slide System; Nalge Nunc International Corp., Naperville, Ill.). Cells were washed with PBS and incubated with 30 μM (in 300 μl DMEM supplemented with 10% FBS, penicillin and streptomycin) of the targeted and untargeted peptides for 6 hours. Pure DMEM was used as an internal negative control. Apoptosis was detected with the Annexin-V-FLUOS Staining kit (Roche, Manheim, Germany) according to the manufacturer's instructions.

[7] = tested on: LNCaP cells; test: Cell apoptosis assay (Annexin-V staining), LnCap; type: cell-based, human; details: LnCap (data not shown)
[8] = tested on: DU145-derived human prostate carcinoma xenografts; test: Targeted treatment of nude mice bearing DU145 human prostate carcinoma xenografts; type: in vivo; details: 300 μg/week per mouse i.v.; controls vehicle and equimolar unconjugated mixtures; P<0.001
Protocol: Establishment of mice bearing human tumor xenografts. Male athymic nu/nu (nude) mice were obtained commercially from Harlan-Sprague-Dawley (Indianapolis, Ind.). Human prostate cancer xenografts were established by injection of DU 145 cells (10^6 cells in a 200 μl DMEM) in the subcutaneous tissue of 2 months old male nude mice.
Targeted treatment ofnude mice bearing human prostate carcinoma xenografts. DU145-derived tumor xenografts were established in male nude mice as described above. GRP78-targeting peptides used for therapy were coupled to the pro-apoptotic motif D(KLAKLAK)2 ([…]) and controls were treated with an equimolar concentration of the GRP78-targeting peptides and the pro-apoptotic motif. Mice were divided into groups of seven animals and treatment started when mean tumor volume for each group was around 200 mm^3. Two-dimensional measurements of tumors were made by caliper on anesthetized mice, and were used to calculate tumor volume. […]
Statistical analysis. Experiments are expressed as mean±standard errors of the means (SEM) of triplicate plates and analyzed by using the two-tailed Student's t test (t test). Tumor volumes were calculated individually for each mouse throughout the study and results are also expressed as mean±SEM for all the groups.

[9] = biological target: T1, recombinant GRP78 (Mesocricetus auratus, UniProt P07823); test: In vitro phage binding assay on immobilized GRP78; details: increasing concentrations of synthetic peptide against the corresponding phage
T1 construct: purchased Stressgen, Victoria, Canada
T1 sequence (P07823 19-654): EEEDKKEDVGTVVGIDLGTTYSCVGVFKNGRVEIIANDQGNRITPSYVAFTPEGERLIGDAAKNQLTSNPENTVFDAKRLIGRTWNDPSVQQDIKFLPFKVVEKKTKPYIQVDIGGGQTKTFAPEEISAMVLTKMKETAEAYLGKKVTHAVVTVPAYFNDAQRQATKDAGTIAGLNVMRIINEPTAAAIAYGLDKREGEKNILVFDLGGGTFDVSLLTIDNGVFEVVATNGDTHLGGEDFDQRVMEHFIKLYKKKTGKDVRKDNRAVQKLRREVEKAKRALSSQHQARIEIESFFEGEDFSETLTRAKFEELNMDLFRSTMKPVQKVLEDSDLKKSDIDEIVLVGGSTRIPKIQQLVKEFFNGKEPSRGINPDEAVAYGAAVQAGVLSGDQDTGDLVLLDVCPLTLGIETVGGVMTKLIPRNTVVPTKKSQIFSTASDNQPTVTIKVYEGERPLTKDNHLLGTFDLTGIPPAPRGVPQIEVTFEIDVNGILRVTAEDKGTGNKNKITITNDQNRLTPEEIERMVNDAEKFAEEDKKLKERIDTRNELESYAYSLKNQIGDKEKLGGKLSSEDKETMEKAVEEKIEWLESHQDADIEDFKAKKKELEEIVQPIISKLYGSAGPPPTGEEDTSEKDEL
Protocol: In vitro phage binding assays. GRP78, HSP70, HSP90 (all from Stressgen, Victoria, Canada) and bovine serum albumin (BSA) were immobilized on microtiter wells of 96-well plates overnight at 4° C. Wells were washed twice with phosphate-buffered saline (PBS), blocked with PBS containing 3% BSA for 1 hour at room temperature (RT), and incubated with 10^9 transducing units (TU) of WIFPWIQL (SEQ ID NO:6)-phage, WDLAWMFRLPVG (SEQ ID NO:7)-phage, or insertless control phage (Fd-tet) in 50 μl of PBS containing 1.5% BSA. After 2 hours at RT, wells were washed with PBS, and bound phage were recovered by infection with host bacteria (log-phase Escherichia coli K91 kan; OD600≈2). Aliquots of the bacterial culture were plated onto Luria-Bertani broth (LB) agar plates supplemented with 40 μg/ml tetracycline and 100 μg/ml kanamycin. Plates were incubated overnight at 37° C., and phage TU were counted in triplicate plates. Increasing concentrations of synthetic peptides WIFPWIQL (SEQ ID NO:6), WDLAWMFRLPVG (SEQ ID NO:7)-, and an unrelated control peptide CARAC (SEQ ID NO:9) (Genemed Synthesis Inc., San Francisco, Calif.) were used to evaluate competitive inhibition of phage binding. All peptides were solubilized in a standard stock solution of 10% dimethylsulfoxide (DMSO) and diluted to working concentrations for the assays.

CC(C)C[C@@H](NC(=O)[C@@H](CCCCN)NC(=O)CNC(=O)CNC(=O)[C@@H]1CSSC[C@H](N)C(=O)N[C@@H](CCCCN)C(=O)NCC(=O)NCC(=O)N[C@@H](CCCNC(=N)N)C(=O)N[C@@H](C)C(=O)N[C@@H](CCCCN)C(=O)N[C@@H](CC(=O)O)C(=O)N1)C(=O)N[C@H](C)C(=O)N[C@H](CCCCN)C(=O)N[C@H](CC(C)C)C(=O)N[C@H](C)C(=O)N[C@H](CCCCN)C(=O)N[C@H](CCCCN)C(=O)N[C@H](CC(C)C)C(=O)N[C@H](C)C(=O)N[C@H](CCCCN)C(=O)N[C@H](CC(C)C)C(=O)N[C@H](C)C(=O)N[C@H](CCCCN)C(=O)O (H-CKGGRAKDCGG[dK][dL][dA][dK][dL][dA][dK][dK][dL][dA][dK][dL][dA][dK]-OH; disulfide 1-9)
toxicity [1]: without detectable toxicity | apoptosis and appearance of control organs such as liver [2]: apoptosis was not detected in the control tissues

CGRRAGGSC (SEQ ID NO:1): soluble IL-11-mimic peptide alone, used as control
programmed cell death / toxic effect (WST-1 cell viability) [3]: no measurable toxic effects | programmed cell death / toxic effect (WST-1 cell viability) [4]: no measurable toxic effects

CKGGRAKDC (SEQ ID NO:4)-fitc: soluble CKGGRAKDC peptide linked to fluorescein (fitc) at its C-terminus (CKGGRAKDC-{FITC′}; also: cyclized, bridge type not given here)
presence in isolated ex-vivo blood vessels from white fat tissue ([5]; mouse, in vivo): presence | detection in white fat vasculature ([5]; wild-type C57BL/6 mice, i.v., 5 min prior to tissue collection): specifically localized to and was internalized by blood vessels of subcutaneous and peritoneal white fat | homing to blood vessels of brown fat, liver and other control organs ([5]; wild-type mice, i.v.): no CKGGRAKDC (SEQ ID NO:4)-fitc homing was observed

D(KLAKLAK)2 (SEQ ID NO:11): amphipathic, α-helix-forming anti-microbial pro-apoptotic peptide KLAKLAKKLAKLAK (D-amino acids) [reference compound]
programmed cell death / toxic effect (WST-1 cell viability) [3]: no measurable toxic effects | programmed cell death / toxic effect (WST-1 cell viability) [4]: no measurable toxic effects

WDLAWMFRLPVG (SEQ ID NO:7)-GG-D(KLAKLAK)2 (SEQ ID NO:11): GRP78-targeted pro-apoptotic peptide (WDLAWMFRLPVGGG[dK][dL][dA][dK][dL][dA][dK][dK][dL][dA][dK][dL][dA][dK])
toxicity / apoptosis (Annexin-V staining) [6]: induced apoptosis | toxicity / apoptosis (Annexin-V staining) [7]: induced apoptosis | mean tumor volume relative to the controls [8]: significantly smaller

WDLAWMFRLPVG (SEQ ID NO:7): synthetic GRP78-binding peptide
inhibition of phage binding to GRP78 by synthetic peptide [9]: inhibit binding of the corresponding phage in a dose-dependent manner

WIFPWIQL (SEQ ID NO:6)-GG-D(KLAKLAK)2 (SEQ ID NO:11): GRP78-targeted pro-apoptotic peptide (WIFPWIQLGG[dK][dL][dA][dK][dL][dA][dK][dK][dL][dA][dK][dL][dA][dK])
toxicity / apoptosis (Annexin-V staining) [6]: induced apoptosis | toxicity / apoptosis (Annexin-V staining) [7]: induced apoptosis | mean tumor volume relative to the controls [8]: significantly smaller

WIFPWIQL (SEQ ID NO:6): synthetic GRP78-binding peptide
inhibition of phage binding to GRP78 by synthetic peptide [9]: inhibit binding of the corresponding phage in a dose-dependent manner
